The record followed here is patent publication US10172832B2, “Amide derivatives of N-urea substituted amino acids as formyl peptide receptor like-1 (FPRL-1) receptor modulators” (Allergan, Inc., priority 2011, dated 2019).

In general, EC50 refers to the midpoint of the concentration-response curve.

For the assay, the target named is T1, FPRL-1 (Homo sapiens, UniProt P25090).
T1 construct: expressed in transfected cells
T1 sequence (P25090 1-351): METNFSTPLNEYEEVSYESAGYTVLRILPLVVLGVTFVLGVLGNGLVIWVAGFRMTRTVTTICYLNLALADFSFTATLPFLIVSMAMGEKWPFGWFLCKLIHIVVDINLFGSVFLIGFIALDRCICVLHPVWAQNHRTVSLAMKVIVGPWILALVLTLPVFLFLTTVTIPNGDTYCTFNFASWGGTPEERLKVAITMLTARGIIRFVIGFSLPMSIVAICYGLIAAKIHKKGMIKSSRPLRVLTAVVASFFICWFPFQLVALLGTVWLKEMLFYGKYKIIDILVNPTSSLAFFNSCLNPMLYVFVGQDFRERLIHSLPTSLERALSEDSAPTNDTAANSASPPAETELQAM
Description: compound-induced calcium activity on FLIPR Tetra in CHO-Gα16 cells stably expressing FPRL1. In kind it is cell-based. The following applies: for FPRL-1 Ga16-CHO (Rel. eff.): relative efficacy; for EC50: tested 0.61 to 10,000 nM, read-out: FPRL-1 Ga16-CHO EC50. As to the method: CHO-Gα16 cells stably expressing FPRL1 were cultured in (F12, 10% FBS, 1% PSA, 400 μg/ml geneticin and 50 μg/ml hygromycin) and HEK-Gqi5 cells stable expressing FPR1 were cultured in (DMEM high glucose, 10% FBS, 1% PSA, 400 μg/ml geneticin and 50 μg/ml hygromycin). In general, the day before the experiment, 18,000 cells/well were plated in a 384-well clear bottom poly-d-lysine coated plate. The following day the screening compound-induced calcium activity was assayed on the FLIPR^Tetra. The drug plates were prepared in 384-well microplates using the EP3 and the MultiPROBE robotic liquid handling systems. Compounds were tested at concentrations ranging from 0.61 to 10,000 nM. Results are expressed as EC50 (nM) and efficacy values.

`CC(C)C[C@@H](NC(=O)Nc1ccc(Br)cc1)C(=O)NCC(=O)OC(C)(C)C` [Compound 66, tert-butyl {[(2R)-2-{[(4-bromophenyl)carbamoyl]amino}-4-methylpentanoyl]amino}acetate]: the “FPRL-1 Ga16-CHO (Rel. eff.)” value is reported as “(0.92)” and the EC50 is 3.66 µM.

Turning to `CC(C)C[C@H](NC(=O)Nc1ccc(C(F)(F)F)cc1)C(=O)NCC(=O)OC(C)(C)C` [Compound 62, tert-butyl {[(2S)-4-methyl-2-({[4-(trifluoromethyl)phenyl]carbamoyl}amino)pentanoyl]amino}acetate], the “FPRL-1 Ga16-CHO (Rel. eff.)” value is “(0.81)” and the EC50 is 0.309 µM.

As for `CCC[C@H](NC(=O)Nc1ccc(Br)cc1)C(=O)NCC(=O)OC(C)C` [Compound 24, isopropyl {[(2S)-2-{[(4-bromophenyl)carbamoyl]amino}-pentanoyl]amino}acetate], the “FPRL-1 Ga16-CHO (Rel. eff.)” value is given as “(1.04)” and the EC50 is 0.014 µM.

For `CCC[C@H](NC(=O)Nc1ccc(Br)cc1)C(=O)NCC(=O)OCC` [Compound 23, ethyl {[(2S)-2-{[(4-bromophenyl)carbamoyl]amino}-pentanoyl]amino}acetate], the “FPRL-1 Ga16-CHO (Rel. eff.)” value is on record as “(1.18)” and the EC50 stood at 0.057 µM.

For the compound `CC(C)C[C@H](NC(=O)Nc1ccc(Br)cc1F)C(=O)NCC(=O)OC(C)(C)C` [Compound 33, tert-butyl{[(2S)-2-{[(4-bromo-2-fluorophenyl)carbamoyl]amino}-4-methylpentanoyl]amino}acetate], the “FPRL-1 Ga16-CHO (Rel. eff.)” value is on record as “(1.19)” and the EC50 was found to be 0.134 µM.

Regarding `CC(C)(C)OC(=O)CNC(=O)[C@H](Cc1ccccc1)NC(=O)Nc1ccc(Br)cc1` [Compound 7, tert-Butyl {[(2S)-2-{[(4-bromophenyl)carbamoyl]amino}-3-phenylpropanoyl]amino}acetate], the “FPRL-1 Ga16-CHO (Rel. eff.)” value is reported as “(0.91)” and the EC50 was determined as 0.118 µM.

Turning to `CC(C)C[C@H](NC(=O)Nc1ccc(Br)cc1)C(=O)NCC(=O)OC(C)(C)C` [Compound 25, tert-butyl {[(2S)-2-{[(4-bromophenyl)carbamoyl]amino}-4-methylpentanoyl]amino}acetate], the “FPRL-1 Ga16-CHO (Rel. eff.)” value is “(0.85)” and the half-maximal effective concentration (EC50) came to 0.14 µM.

On to `CCC[C@H](NC(=O)Nc1ccc(Br)cc1)C(=O)NCCO` [Compound 20, (2S)-2-{[(4-bromophenyl)carbamoyl]amino}-N-(2-hydroxyethyl)pentanamid], for which the “FPRL-1 Ga16-CHO (Rel. eff.)” value is listed as “(0.92)” and the EC50 is 0.038 µM.

In the case of `CC(C)C[C@H](NC(=O)Nc1ccc(Br)cc1)C(=O)N[C@H](C(N)=O)c1ccccc1` [Compound 54, (2S)-N-[(1S)-2-amino-2-oxo-1-phenylethyl]-2-{[(4-bromophenyl)carbamoyl]amino}-4-methylpentanamide], the “FPRL-1 Ga16-CHO (Rel. eff.)” value is “(0.99)” and the concentration for a half-maximal effect (EC50) was determined as 0.084 µM.

Regarding `CC[C@H](C)[C@H](NC(=O)Nc1ccc(Br)cc1)C(=O)NCC(C)=O` [Compound 12, (2S,3S)-2-{[(4-bromophenyl)carbamoyl]amino}-3-methyl-N-(2-oxopropyl)pentanamide], the “FPRL-1 Ga16-CHO (Rel. eff.)” value was “(0.97)” and the EC50 stood at 0.01 µM.

Regarding `CC(C)C[C@@H](NC(=O)Nc1ccc(Br)cc1F)C(=O)NCC(=O)O` [{[(2R)-2-{[(4-bromo-2-fluorophenyl)carbamoyl]amino}-4-methylpentanoyl]amino}acetic acid], the “FPRL-1 Ga16-CHO (Rel. eff.)” value was “(0.87)” and the EC50 worked out at 1.49 µM.

With `CC(C)(C)OC(=O)CNC(=O)C(C)(C)NC(=O)Nc1ccc(Br)cc1` [Compound 59, tert-butyl {[2-{[(4-bromophenyl)carbamoyl]amino}-2-methylpropanoyl]amino}acetate], the “FPRL-1 Ga16-CHO (Rel. eff.)” value is given as “(1.02)” and the EC50 was determined as 0.114 µM.

As for `O=C(O)CCNC(=O)[C@H](Cc1ccccc1)NC(=O)Nc1ccc(Br)cc1` [Compound 2, 3-{[(2S)-2-{[(4-bromophenyl)carbamoyl]amino}-3-phenylpropanoyl]amino}propanoic acid], the “FPRL-1 Ga16-CHO (Rel. eff.)” value is listed as “(0.98)” and the EC50 turned out to be 0.018 µM.

Turning to `CC(C)C[C@@H](NC(=O)Nc1ccc(Br)cc1)C(=O)NC(C)(C)C(=O)OC(C)(C)C` [Compound 86, tert-butyl 2-{[(2R)-2-{[(4-bromophenyl)carbamoyl]amino}-4-methylpentanoyl]amino}-2-methylpropanoate], the “FPRL-1 Ga16-CHO (Rel. eff.)” value is given as “(0.74)” and the EC50 turned out to be 2.73 µM.

As for `CC(C)(C)OC(=O)CCNC(=O)[C@H](Cc1ccccc1)NC(=O)Nc1ccc(Br)cc1` [Compound 8, tert-butyl 3-{[(2S)-2-{[(4-bromophenyl)carbamoyl]amino}-3-phenylpropanoyl]amino}propanoate], the “FPRL-1 Ga16-CHO (Rel. eff.)” value is “(1.00)” and the EC50 is 0.255 µM.

Regarding `CC(C)C[C@H](NC(=O)Nc1ccc(Br)cc1)C(=O)N[C@@H](C)C(=O)OC(C)(C)C` [Compound 41], the “FPRL-1 Ga16-CHO (Rel. eff.)” value is recorded as “(0.96)” and the EC50 was 0.147 µM.

Turning to `CC(C)C[C@H](NC(=O)Nc1ccc(SC(F)(F)F)cc1)C(=O)NCC(=O)OC(C)(C)C` [Compound 71, tert-butyl ({(2S)-4-methyl-2-[({4-[(trifluoromethyl)sulfanyl]phenyl}carbamoyl)amino]pentanoyl}amino)acetate], the “FPRL-1 Ga16-CHO (Rel. eff.)” value is “(0.78)” and the EC50 turned out to be 3.1 µM.

As for `CC[C@@H](C)[C@@H](NC(=O)Nc1ccc(Br)cc1)C(=O)NCC(=O)O` [Compound 65, {[(2R,3R)-2-{[(4-bromophenyl)carbamoyl]amino}-3-methylpentanoyl]amino}acetic acid], the “FPRL-1 Ga16-CHO (Rel. eff.)” value is reported as “(0.45)” and the EC50 was 19.3 µM.

With `CCC(CC)(NC(=O)Nc1ccc(Br)cc1)C(=O)NCC(=O)O` [Compound 58, {[2-{[(4-bromophenyl)carbamoyl]amino}-2-ethylbutanoyl]amino}acetic acid], the “FPRL-1 Ga16-CHO (Rel. eff.)” value was “(1.04)” and the EC50 was 0.019 µM.

Consider `CC(C)(C)OC(=O)CNC(=O)C(Cc1c[nH]cn1)NC(=O)Nc1ccc(Br)cc1` (centres unmarked) [Compound 84, tert-butyl {[2-{[(4-bromophenyl)carbamoyl]amino}-3-(1H-imidazol-4-yl)propanoyl]amino}acetate], for which the “FPRL-1 Ga16-CHO (Rel. eff.)” value is given as “(0.95)” and the EC50 was found to be 0.263 µM.

As to `CCC[C@H](NC(=O)Nc1ccc(Br)cc1)C(=O)NCC(=O)OC(C)(C)C` [Compound 18, tert-butyl {[(2S)-2-{[(4-bromophenyl)carbamoyl]amino}-pentanoyl]amino}acetate], the “FPRL-1 Ga16-CHO (Rel. eff.)” value was “(0.95)” and the EC50 came out at 0.031 µM.

Turning to `CCC[C@H](NC(=O)[C@H](CC(C)C)NC(=O)Nc1ccc(Br)cc1)C(N)=O` [Compound 53, (2S)-N-[(2S)-1-amino-1-oxopentan-2-yl]-2-{[(4-bromophenyl)carbamoyl]amino}-4-methylpentanamide], the “FPRL-1 Ga16-CHO (Rel. eff.)” value is recorded as “(1.03)” and the EC50 stood at 0.0064 µM.

Take `CC(C)C[C@H](NC(=O)Nc1ccc([S+](C)[O-])cc1)C(=O)NCC(=O)OC(C)(C)C` (stereo partly drawn) [Compound 75, tert-butyl {[(2S)-4-methyl-2-({[4-(methylsulfinyl)phenyl]carbamoyl}amino)pentanoyl]amino}acetate]: the “FPRL-1 Ga16-CHO (Rel. eff.)” value was “(0.97)” and the EC50 amounted to 0.668 µM.

With `CC[C@H](C)[C@H](NC(=O)Nc1ccc(Br)cc1F)C(=O)NCCO` [Compound 15, (2S,3S)-2-{[(4-bromo-2-fluorophenyl)carbamoyl]amino}-N-(2-hydroxyethyl)-3-methylpentanamide], the “FPRL-1 Ga16-CHO (Rel. eff.)” value was “(1.00)” and the EC50 came out at 0.062 µM.

On to `CC(C)C[C@H](NC(=O)Nc1ccc(C(F)(F)F)cc1)C(=O)NC(C)(C)C(=O)O` [Compound 69, 2-methyl-2-{[(2S)-4-methyl-2-({[4-(trifluoromethyl)phenyl]carbamoyl}amino)pentanoyl]amino}propanoic acid], for which the “FPRL-1 Ga16-CHO (Rel. eff.)” value is “(0.92)” and the EC50 was 0.0023 µM.

Regarding `CC[C@@H](C)[C@@H](NC(=O)Nc1ccc(Br)cc1)C(=O)NCC(=O)OC(C)(C)C` [Compound 64, tert-butyl {[(2R,3R)-2-{[(4-bromophenyl)carbamoyl]amino}-3-methylpentanoyl]amino}acetate], the “FPRL-1 Ga16-CHO (Rel. eff.)” value is listed as “(0.44)” and the EC50 turned out to be 3.97 µM.

With `CC(C)C[C@H](NC(=O)Nc1ccc(Br)cc1)C(=O)NC(C)(C)C(=O)OC(C)(C)C` [Compound 73, tert-butyl 2-{[(2S)-2-{[(4-bromophenyl)carbamoyl]amino}-4-methylpentanoyl]amino}-2-methylpropanoate], the “FPRL-1 Ga16-CHO (Rel. eff.)” value is “(1.16)” and the EC50 came to 0.133 µM.

Turning to `O=C(Nc1ccc(Br)cc1)N[C@@H](Cc1ccccc1)C(=O)NCCO` [Compound 9, (2S)-2-{[(4-bromophenyl)carbamoyl]amino}-N-(2-hydroxyethyl)-3-phenylpropanamide], the “FPRL-1 Ga16-CHO (Rel. eff.)” value is on record as “(0.92)” and the EC50 was 0.006 µM.
